Data: patent US20070129426A1, “Therapeutic drugs for arthritis” (Shanghai Ambrosia Pharmaceutical Co., Ltd., priority 2003, published 2007)

Tests used:
[1] = tested on: acute inflammation of mice ear caused by dimethylbenzene; assay: Mice ear inflammation caused by dimethylbenzene; format: in vivo, Kunming mice; conditions: for Difference (mg) between left and right ear: 4 days, 2 h after dimethylbenzene, n=10
Protocol: Experimental animal: Kunming mice, body weight 18-22 g.
Method of administration: intraperitoneal injection. The doses of wedelolactone were 12.5 mg/kg and 25 mg/kg, respectively; the negative control used 0.5% CMC; the positive control used ibuprofen (25 mg/kg).
Method of experiment: The animals were divided randomly into 4 groups based on their body weights, 10 mice each group. The mice were administered with the test compound for 4 continuous days. On Day 4, both sides of the right ears of the mice were daubed evenly with 50 μl dimethylbenzene 2 hours after the administration. The left ears were not treated. The mice were left for 2 hours and then sacrificed by cervical dislocation. The ear specimens were obtained by punching both ears with a 8 mm hole-puncher. The specimens were weighed and the differences between the left and the right ears were used to evaluate the effect of the compound on the inflammation.

[2] = tested on: adjuvant-induced arthritis of rats; assay: Adjuvant-induced arthritis of rats; format: in vivo, Male Wistar rats; conditions: for Left front paw thickness, Day 5 / Right front paw thickness, Day 5 / Right hind paw thickness, Day 5 / Right hind paw volume, Day 5 / Left hind paw thickness, Day 5 / Left hind paw volume, Day 5: day 5 after administration; for Left hind paw thickness, Day 5 / Left hind paw volume, Day 5 / Left hind paw thickness, Day 10 / Left hind paw volume, Day 10 / Left hind paw thickness, Day 15 / Left hind paw volume, Day 15 / Left hind paw thickness, Day 19 / Left hind paw volume, Day 19: adjuvant-injected paw; for Left front paw thickness, Day 10 / Right front paw thickness, Day 10 / Right hind paw thickness, Day 10 / Right hind paw volume, Day 10 / Left hind paw thickness, Day 10 / Left hind paw volume, Day 10: day 10 after administration; for Left front paw thickness, Day 15 / Right front paw thickness, Day 15 / Right hind paw thickness, Day 15 / Right hind paw volume, Day 15 / Left hind paw thickness, Day 15 / Left hind paw volume, Day 15: day 15 after administration; for Left front paw thickness, Day 19 / Right front paw thickness, Day 19 / Right hind paw thickness, Day 19 / Right hind paw volume, Day 19 / Left hind paw thickness, Day 19 / Left hind paw volume, Day 19: day 19 after administration
Protocol: Experimental animal: Male Wistar rats. Body weights were about 150 g.
Method of administration: intraperitoneal injection. The dose of wedelolactone was 0.25 mg/kg or 12.5 mg/kg, prepared in 0.5% CMC. The dose of methotrexate (MTX) is 0.2 mg/kg.
Method of experiment: The animals were divided randomly into 4 groups based on their body weights. They were adapted for 3 days before experiments. The left hind planta of the rats were injected subcutaneously with 0.1 ml CFA emulsion to induce inflammation. On the Day 10, after the administration of the adjuvant, the rats were injected intraperitoneally with 5 ml/kg test compound wedelolactone for 19 continuous days. On and after the day of administration of the adjuvant, the change of thickness of the four rat paws was measured daily using a vernier caliper, and the volume of the back paw were measured using a Plethysmometer. The data from day 5, 10, 15, and 19 after administration were used for statistic analyses.

[3] = tested on: collagen-induced rat arthritis; assay: Collagen-induced rat arthritis (joint surface temperature, inflammation score); format: in vivo, Male Wistar rats; conditions: for inflammation score, Day 10 / inflammation score, Day 20 / inflammation score, Day 30: highest total score 16 points; for Joint surface temperature difference (° C.), Day 10: day 10 after first immunization; for Joint surface temperature difference (° C.), Day 20: day 20 after first immunization; for Joint surface temperature difference (° C.), Day 30: day 30 after first immunization
Protocol: (§1) Experimental animal: Male Wistar rats. Body weights were about 120 g.
(§2) Administration method: intraperitoneal injection. The dose of wedelolactone is 6 or 12 mg/kg. Negative control used 0.5% CMC.
Experimental methods: 1). Preparation of type-II collagen. The fresh calf cartilages were ground at 4° C., immersed and washed with Tris-HCL2. The left residue was digested with pepsin. The supernatant was collected and salted out, followed by chromatography with DE-52 column to obtain type-II collagen. The collagen were dissolved in glacial acetic acid and mixed with Freund's adjuvant by grounding. Each of the animals, except the controls, was subcutaneously injected with a total of 2.5 mg/kg collagen at multiple sites of the tail root and back neck. 7 days thereafter, the animals were boostered by subcutaneous administration with 1.0 mg/kg collagen in the tail root and back neck. The immunized animals were divided randomly into 4 groups based on their body weight, 10 mice in each group. The four groups were modeling blank group, modeling control group, low dose wedelolactone group, and high dose wedelolactone group. The daily administration started at day 10 after the first immunization for 3 weeks continuously. The effects of the drug on the rat rheumatoid arthritis and the delayed-hypersensitivity were recorded. Starting from day 10 after the first immunization, the following data were recorded every 10 days: A) arthritis surface temperature (the surface temperature of both hind leg joints were measured by using a digital temperature recorder, and the temperature differences before and after the immunization was calculated). B) arthritis score (arthritis was scored following the method described in the literature. 1 point: inflammation in one area of paws or planta; 2 points: inflammation in more than two areas of paws or planta; 3 points: mild inflammation in the whole legs; 4 points: severe inflammation causing joint rigidity, deformation and dysfunction. The highest score for each paw is 4 points. The highest total score for each rat is 16 points. C) Delayed-hypersensitivity measurement. At day 24, 10 μl type II collagen containing solution was injected subcutaneously in the back of the right ear of each rat. The thickness of the ear before and 48 hr after the injection was measured.

[4] = tested on: delayed hypersensitivity of the collagen II-induced arthritic rats; assay: Delayed hypersensitivity of collagen II-induced arthritic rats; format: in vivo, Male Wistar rats; conditions: 48 hr after type II collagen injection
Protocol: as §1, §2
Experimental methods: 1). Preparation of type-II collagen. The fresh calf cartilages were ground at 4° C., immersed and washed with Tris-HCL2. The left residue was digested with pepsin. The supernatant was collected and salted out, followed by chromatography with DE-52 column to obtain type-II collagen. The collagen were dissolved in glacial acetic acid and mixed with Freund's adjuvant by grounding. Each of the animals, except the controls, was subcutaneously injected with a total of 2.5 mg/kg collagen at multiple sites of the tail root and back neck. […] The effects of the drug on the rat rheumatoid arthritis and the delayed-hypersensitivity were recorded. Starting from day 10 after the first immunization, the following data were recorded every 10 days: A) arthritis surface temperature (the surface temperature of both hind leg joints were measured by using a digital temperature recorder, and the temperature differences before and after the immunization was calculated). B) arthritis score (arthritis was scored following the method described in the literature. […] The thickness of the ear before and 48 hr after the injection was measured.

## COc1cc(O)c2c(c1)oc(=O)c1c3cc(O)c(O)cc3oc21 [wedelolactone]
[1]; 12.5 mg/kg i.p.
  Difference (mg) between left and right ear: 11.3 ± 3.6 mg
[1]; 25 mg/kg i.p.
  Difference (mg) between left and right ear: 10.9 ± 4.6 mg
[1]; 12.5 and 25 mg/kg i.p.
  Inhibition of mice ear inflammation caused by dimethylbenzene: could inhibit the inflammation of the mice ear caused by dimethylbenzene
[2]; 0.25 mg/kg
  Primary inflammation of the left foot and secondary inflammation of the right foot (FIG. 4): prone to be alleviated
[2]; 0.25 mg/kg i.p.
  Left front paw thickness, Day 5: 4.20 ± 0.11 mm
  Right front paw thickness, Day 5: 4.13 ± 0.15 mm
  Right hind paw thickness, Day 5: 5.05 ± 0.24 mm
  Right hind paw volume, Day 5: 1.18 ± 0.05 mL
  Left hind paw thickness, Day 5: 7.10 ± 0.83 mm
  Left hind paw volume, Day 5: 1.85 ± 0.24 mL
  Left front paw thickness, Day 10: 4.71 ± 0.24 mm
  Right front paw thickness, Day 10: 4.66 ± 0.09 mm
  Right hind paw thickness, Day 10: 5.28 ± 0.38 mm
  Right hind paw volume, Day 10: 1.16 ± 0.08 mL
  Left hind paw thickness, Day 10: 8.18 ± 1.22 mm
  Left hind paw volume, Day 10: 2.38 ± 0.30 mL
  Left front paw thickness, Day 15: 4.61 ± 0.10 mm
  Right front paw thickness, Day 15: 4.54 ± 0.15 mm
  Right hind paw thickness, Day 15: 5.15 ± 0.35 mm
  Right hind paw volume, Day 15: 1.29 ± 0.13 mL
  Left hind paw thickness, Day 15: 8.51 ± 0.91 mm
  Left hind paw volume, Day 15: 2.63 ± 0.37 mL
  Left front paw thickness, Day 19: 4.64 ± 0.17 mm
  Right front paw thickness, Day 19: 4.59 ± 0.15 mm
  Right hind paw thickness, Day 19: 5.23 ± 0.23 mm
  Right hind paw volume, Day 19: 1.36 ± 0.12 mL
  Left hind paw thickness, Day 19: 8.49 ± 1.06 mm
  Left hind paw volume, Day 19: 2.61 ± 0.42 mL
[2]; 12.5 mg/kg
  Primary inflammation of the left foot and secondary inflammation of the right foot (FIG. 3): alleviated
[2]; 12.5 mg/kg i.p.
  Left front paw thickness, Day 5: 4.11 ± 0.11 mm
  Right front paw thickness, Day 5: 4.01 ± 0.17 mm
  Right hind paw thickness, Day 5: 4.95 ± 0.27 mm
  Right hind paw volume, Day 5: 1.10 ± 0.10 mL
  Left hind paw thickness, Day 5: 7.13 ± 0.96 mm
  Left hind paw volume, Day 5: 1.64 ± 0.31 mL
  Left front paw thickness, Day 10: 4.03 ± 0.13 mm
  Right front paw thickness, Day 10: 3.95 ± 0.12 mm
  Right hind paw thickness, Day 10: 5.05 ± 0.25 mm
  Right hind paw volume, Day 10: 1.03 ± 0.10 mL
  Left hind paw thickness, Day 10: 8.09 ± 1.05 mm
  Left hind paw volume, Day 10: 2.14 ± 0.45 mL
  Left front paw thickness, Day 15: 4.11 ± 0.16 mm
  Right front paw thickness, Day 15: 4.11 ± 0.16 mm
  Right hind paw thickness, Day 15: 5.20 ± 0.23 mm
  Right hind paw volume, Day 15: 1.24 ± 0.16 mL
  Left hind paw thickness, Day 15: 8.44 ± 1.63 mm
  Left hind paw volume, Day 15: 2.42 ± 0.62 mL
  Left front paw thickness, Day 19: 4.04 ± 0.14 mm
  Right front paw thickness, Day 19: 4.04 ± 0.07 mm
  Right hind paw thickness, Day 19: 4.98 ± 0.10 mm
  Right hind paw volume, Day 19: 1.19 ± 0.08 mL
  Left hind paw thickness, Day 19: 8.53 ± 1.33 mm
  Left hind paw volume, Day 19: 2.46 ± 0.75 mL
[2]; 0.25 or 12.5 mg/kg i.p., 19 days
  Inhibition of rat adjuvant arthritis: could effectively inhibit rat adjuvant arthritis
[3]; 6 mg/kg i.p.
  inflammation score, Day 10: 4.00 ± 2.02
  Joint surface temperature difference (° C.), Day 10: 1.42 ± 0.74 °C
  inflammation score, Day 20: 3.10 ± 1.45
  Joint surface temperature difference (° C.), Day 20: 0.83 ± 0.44 °C
  inflammation score, Day 30: 2.7 ± 1.35
  Joint surface temperature difference (° C.), Day 30: 0.72 ± 0.40 °C
[3]; 12 mg/kg i.p.
  inflammation score, Day 10: 4.10 ± 2.08
  Joint surface temperature difference (° C.), Day 10: 1.36 ± 0.50 °C
  inflammation score, Day 20: 2.00 ± 1.41
  Joint surface temperature difference (° C.), Day 20: 0.73 ± 0.45 °C
  inflammation score, Day 30: 1.40 ± 1.02
  Joint surface temperature difference (° C.), Day 30: 0.48 ± 0.39 °C
[3]; 6 or 12 mg/kg i.p., 3 weeks
  Inhibition of collagen-induced rat arthritis: can effectively inhibit the collagen-induced rat arthritis
[4]; 6 mg/kg i.p.
  Increased thickness of the right ear (mm): 0.231 ± 0.113 mm
[4]; 12 mg/kg i.p.
  Increased thickness of the right ear (mm): 0.194 ± 0.115 mm
